In patent publication US12295973B2 (Fred Hutchinson Cancer Center, priority 2017, dated 2025):

Tested on: mice exposed to L-TBI
Assay: Mouse survival after lethal total body irradiation (L-TBI, 840cGy)
Type: in vivo
Settings: MDV3100 24 h after L-TBI, alone
Excerpt: Description. Inhibition of sex steroids, which can be achieved in a reversible fashion pharmacologically, is a well-described strategy to promote lymphopoiesis in the BM and thymus^8,7,14,15. Although the most common method of sex steroid ablation clinically has been to use LHRH-agonists, it was described that an LHRH-Antagonist represents a more rational approach to promote immediate ablation of sex steroids for immune regeneration as it is far more rapid and abrogates the initial surge in sex steroids that LHRH-Agonist cause^16. Taken together with the impact of sex steroid inhibition on HSC function and the rapid regenerative effects of LHRH-Ant, it was hypothesized that LHRH-Ant could represent a rational non-cellular medical countermeasure for mitigating radiation injury and promoting hematopoietic regeneration when administered after hematopoietic insult. […] It was then tested if LHRH-Ant could mediate even greater mouse survival when administered multiple times.
Methods. […] B6.SJL-Ptprca Pepcb/BoyJ (CD45.1) male mice (The Jackson Laboratory) were used between 7 and 12 weeks of age for transplant. Mice were irradiated with a Gammacell 40 Irradiator (Cs-137), with an average dose rate of 95 cGy/min, in a plexiglass mouse pie cage. To assess mouse survival after radiation, mice were monitored for up to 60 days after TBI. To adjust for differences in weight, identical mice were purchased from Jackson and cages randomly distributed over different groups. All animal protocols were approved by the Memorial Sloan Kettering Cancer Center Institutional Animal Care and Use Committee.
Reagents: Degarelix (as acetate), a LHRH-Ant (Firmagon), was resuspended in sterile water for injection and administered S.C. to mice at a dose of 40 mg/kg. To evaluate the radiomitigative effect of LHRH-Ant on survival, mice were treated subcutaneously (S.C.) with a single injection of the LHRH-Ant or a saline control solution (PBS). Degarelix was purchased from the Memorial Sloan-Kettering Cancer Center Pharmacy. […] MDV3100 (selleckchem) was resuspended in a mixture of 45% PBS, 45% PEG and 10% DMSO and administered daily to mice by oral gavage at a dose of 10 mg/kg. 5-FU (InvivoGen) was administered to mice intraperitoneally (I.P.) at a dose of 150 mg/kg once every 7 days consecutively for 3 times as previously described^34,47,49.

SMILES: CNC(=O)c1ccc(N2C(=S)N(c3ccc(C#N)c(C(F)(F)F)c3)C(=O)C2(C)C)cc1F [MDV3100, enzalutamide]
- survival after L-TBI: did not mediate any survival benefit
